The source of these data is patent US8765802B2, “Kinase inhibitors, compositions thereof, and methods of use therewith” (Provid Pharmaceuticals, Inc., priority 2007, dated 2014).

This assay has as its target T1, Chk2 (Homo sapiens, UniProt O96017).
T1 construct: made in house; host or cells: E. coli BL21 Star (Invitrogen)
As to the kind of experiment: Chk2 inhibitor IMAP assay (high-throughput Chk2 screening assay). Conditions: IMAP fluorescence polarization assay, 10 μM ATP. It is filed as biochemical. How it is done: Compounds set forth in Table 1 were tested in the Chk2 inhibitor IMAP assay described herein in Example 6.84. […] The letters given for the Chk2 EC50 values in Table 1 represent the following ranges: A=<100 nM; B=100-300 nM; C=300-1000 nM; D=1-10 μM; and E>10 μM.
Compounds can be screened for Chk2 inhibitory activity using a high-throughput screening assay based in the immobilized metal ion affinity-based fluorescence polarization (IMAP) assay developed by Molecular Devices. This assay is based on the high affinity binding of phosphate by immobilized metal (MIII) coordination complexes on nanoparticles. A fluorescein-labeled peptide substrate is used as the substrate for the kinase activity of Chk2 in the assay. The IMAP binding reagent stops the kinase reaction. The binding of the binding reagent results in a change in the rate of molecular motion of the peptide and causes an increase in the fluorescence polarization value observed for the fluorescein label attached to the end of the peptide. Thus, inhibition of Chk2 would result in a decrease in fluorescence polarization compared to control.
A specific protocol for screening Compounds for Chk2 inhibitory activity follows.
A Compound is supplied at 1 mM in 0.5 μl DMSO on 384 well plates (such as Greiner or Corning). After thawing, 5 μl DMSO is added to the drug plate. The drug plate is then incubated for 10 minutes to solubilize the Compound. An additional 19.5 μl of reaction buffer (10× stock prepared using 100 mM Tris-HCl, 100 mM MgCl2, 1% BSA, pH 7.2, stored at 4° C.)+1 mM DDT is added to bring the Compound to 4× final concentration. A positive control is also prepared at 4× final concentration. The following control wells are used: less enzyme control (all reagents except enzyme; 5 μl/well), less Compound control (all reagents except Compound; 5 μl/well), positive control (all reagents plus staurosporine at a final concentration of 5 μM; 5 μl/well).
Reagents are then added in the following order to give the following final concentration: 2.5 μl ATP/Chk2tide (Molecular Devices) (10 μM/100 nM final concentration), 1.25 μl Compound (5 μM final concentration inf 5.5% DMSO), and 1.25 μl Chk2 (1:500, 2.4 μg/mL final concentration).
Plates are covered and incubated at room temperature for 60 minutes.
IMAP binding reagent (Molecular Devices) is diluted 1:400 into binding buffer (Molecular Devices). 15 μl of this solution is then added to all wells and the plates are covered and incubated for 30 minutes.
Plates are read using a Tecan Ultra under the fluorescence polarization mode. Gain is set to the less enzyme and less Compound wells for each plate. Excitation 485 nm, emmission 535 nm, Z position 12519 and flashes 5 are used as settings. Raw data from the Tecan reader is imported into an access database for analysis.

Each structure is given as a SMILES string. pEC50: −log10 of the molar value. Some results are limits rather than exact numbers.

T1 sequence (O96017 whole entry): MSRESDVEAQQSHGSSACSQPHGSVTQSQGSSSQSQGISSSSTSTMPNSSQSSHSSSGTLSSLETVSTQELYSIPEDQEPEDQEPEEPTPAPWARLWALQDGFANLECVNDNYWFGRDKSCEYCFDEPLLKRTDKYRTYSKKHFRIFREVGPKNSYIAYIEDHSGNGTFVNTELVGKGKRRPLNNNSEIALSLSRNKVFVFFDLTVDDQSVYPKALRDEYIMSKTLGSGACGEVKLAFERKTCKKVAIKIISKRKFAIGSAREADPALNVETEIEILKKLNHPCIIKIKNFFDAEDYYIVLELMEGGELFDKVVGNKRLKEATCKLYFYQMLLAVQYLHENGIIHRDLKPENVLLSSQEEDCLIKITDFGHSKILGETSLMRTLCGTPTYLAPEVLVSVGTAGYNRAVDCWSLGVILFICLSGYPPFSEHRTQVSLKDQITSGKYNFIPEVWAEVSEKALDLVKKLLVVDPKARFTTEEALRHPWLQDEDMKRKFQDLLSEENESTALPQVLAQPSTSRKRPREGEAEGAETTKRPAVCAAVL

`C/C(=N\NC(=N)N)c1ccc(NC(=O)c2cc3ccc(C)cc3[nH]2)cc1` [Compound 93] had a pEC50 of 6.00 to 6.52.

In turn, `C/C(=N\NC(=N)N)c1ccc(NC(=O)Nc2ccc(/C(=N/NC(=N)N)c3ccccc3)cc2)cc1` [Compound 55] showed a negative logarithm of the EC50 (pEC50) of less than 5.00.

`C/C(=N\NC(=N)N)c1ccc(NC(=O)Nc2ccc(/C(=N/NC(=N)N)C(C)C)cc2)cc1` [Compound 51] had a pEC50 of 5.00 to 6.00.

`C/C(=N\NC(=N)N)c1ccc(NC(=O)c2c[nH]c3ccccc23)cc1` [Compound 2] gave a pEC50 of 5.00 to 6.00.

As to `C/C(=N\NC(=N)N)c1ccc(NC(=O)c2cc3cccc(C(F)(F)F)c3[nH]2)cc1` [Compound 85], the negative-log EC50 (pEC50) is less than 5.00.

In turn, `C/C(=N\NC(=N)N)c1ccc2[nH]c(C(=O)Nc3ccc(N4CCNCC4)cc3)cc2c1` [Compound 49] had a pEC50 of 6.52 to 7.00.

The compound `C/C(=N\NC(=N)N)c1ccc(NC(=O)c2cc3cccc(N)c3[nH]2)cc1` [Compound 77] showed a pEC50 of 5.00 to 6.00.

Consider `COc1ccc2[nH]c(C(=O)Nc3ccc(/C(C)=N/NC(=N)N)cc3)cc2c1` [Compound 10], for which the negative logarithm of the EC50 (pEC50) is more than 7.00.

`COc1ccc2[nH]nc(C(=O)Nc3ccc(/C(C)=N/NC(=N)N)cc3)c2c1` [Compound 41] gave a pEC50 of 5.00 to 6.00.

Take `CCCC(=NNC(=N)N)c1ccc2[nH]c(C(=O)Nc3ccc4cc[nH]c4c3)cc2c1` (single isomer, unassigned) [Compound 112]: the negative logarithm of the EC50 (pEC50) was more than 7.00.

The compound `C/C(=N\NC(=N)N)c1ccc(NC(=O)c2cc3cc(O)ccc3[nH]2)cc1` [Compound 11] gave a negative logarithm of the EC50 (pEC50) of 6.00 to 6.52.

In turn, `CC(C)CC(=NNC(=N)N)c1ccc2[nH]c(C(=O)Nc3ccc4cc[nH]c4c3)cc2c1` (single isomer, unassigned) [Compound 124] gave a pEC50 of 5.00 to 6.00.

For the compound `CSC(=N)N/N=C(\C)c1ccc(NC(=O)Nc2ccc(C(C)=O)cc2)cc1` [Compound 64], the negative logarithm of the EC50 (pEC50) is less than 5.00.

For the compound `COc1cc2nc(NC(=O)c3ccc(/C(C)=N/NC(=N)N)cc3)sc2cc1OC` [Compound 46], the negative logarithm of the EC50 (pEC50) was 5.00 to 6.00.

As for `C/C(=N\NC(=N)N)c1ccc2[nH]c(C(=O)Nc3ccccn3)cc2c1` [Compound 104], the negative logarithm of the EC50 (pEC50) was less than 5.00.

Turning to `C/C(=N\NC(=N)N)c1ccc(NC(=O)c2cc3ccccc3o2)cc1` [Compound 8], the pEC50 is 6.00 to 6.52.

As for `C/C(=N\NC(=N)N)c1ccc2[nH]c(C(=O)Nc3ccc4cnccc4n3)cc2c1` [Compound 122], the pEC50 was less than 5.00.

`COc1cccc2sc(NC(=O)c3ccc(/C(C)=N\NC(=N)N)cc3)nc12` [Compound 44]: the negative logarithm of the EC50 (pEC50) was less than 5.00.

For the compound `CSc1ccc2cc(C(=O)Nc3ccc(/C(C)=N/NC(=N)N)cc3)[nH]c2c1` [Compound 91], the pEC50 was 6.00 to 6.52.

Regarding `C/C(=N\NC(=N)N)c1ccc(NC(=O)c2cc3cc(C(CC(C)C)=NNC(=N)N)ccc3[nH]2)cc1` [Compound 130], the negative-log EC50 (pEC50) was more than 7.00.

Regarding `C/C(=N\NC(=N)N)c1ccc2[nH]c(C(=O)Nc3cccc(N)c3)cc2c1` [Compound 111], the negative logarithm of the EC50 (pEC50) is 6.00 to 6.52.

`C/C(=N\NC(=N)N)c1ccc(NC(=O)c2cn3ccccc3n2)cc1` [Compound 106]: the pEC50 was 5.00 to 6.00.

`CC(=O)Nc1ccc2cc(C(=O)Nc3ccc(/C(C)=N/NC(=N)N)cc3)[nH]c2c1` [Compound 88] had a negative-log EC50 (pEC50) of 6.00 to 6.52.

Turning to `C/C(=N/NC(=N)N)c1ccc(NC(=O)Nc2ccc(/C(C)=N/NC(=N)N)cc2)c2ccccc12` [Compound 60], the pEC50 is 5.00 to 6.00.

The compound `C/C(=N\NC(=N)N)c1ccc2[nH]c(C(=O)Nc3ccc(C)cn3)cc2c1` [Compound 103] had a negative logarithm of the EC50 (pEC50) of 5.00 to 6.00.

On to `COc1cc(OC)c2cc(C(=O)Nc3ccc(/C(C)=N/NC(=N)N)cc3)[nH]c2c1` [Compound 40], for which the negative logarithm of the EC50 (pEC50) was 5.00 to 6.00.

In turn, `CC(=O)Nc1cccc2cc(C(=O)Nc3ccc(/C(C)=N/NC(=N)N)cc3)[nH]c12` [Compound 76] showed a pEC50 of 6.00 to 6.52.

In the case of `C/C(=N\NC(=N)N)c1ccc(NC(=O)c2cc3ccc(S(C)(=O)=O)cc3[nH]2)cc1` [Compound 89], the pEC50 is 6.00 to 6.52.

Compound `CC(=NNC(=N)N)c1ccc(NC(=O)Nc2ccc3c(c2)CCC(C)C3=NNC(=N)N)cc1` (centres unmarked) [Compound 5] showed a pEC50 of 6.00 to 6.52.

In the case of `COc1ccc2oc(C(=O)Nc3ccc(/C(C)=N/NC(=N)N)cc3)cc2c1` [Compound 78], the pEC50 was 6.52 to 7.00.

In turn, `C/C(=N/NC(=N)N)c1ccc(NC(=O)Nc2ccc(NC(=O)/C(C)=N/NC(=N)N)cc2)cc1` [Compound 12] gave a pEC50 of 6.00 to 6.52.

For the compound `CC(=O)c1ccc(NC(=O)Nc2ccc(/C(C)=N/NC3=NCCN3)cc2)cc1` [Compound 66], the pEC50 is 6.52 to 7.00.

As for `COc1cccc2cc(C(=O)Nc3ccc(/C(C)=N/NC(=N)N)cc3)oc12` [Compound 31], the pEC50 is 6.00 to 6.52.

With `COc1ccc2nc(NC(=O)c3ccc(/C(C)=N/NC(=N)N)cc3)sc2c1` [Compound 43], the pEC50 was 5.00 to 6.00.

Compound `C/C(=N\NC(=N)N)c1ccc(NC(=O)Nc2ccc(-c3csc(NN)n3)cc2)cc1` [Compound 48] had a pEC50 of less than 5.00.

Regarding `C/C(=N/N=C(\N)c1ccccn1)c1ccc(NC(=O)Nc2ccc(/C(C)=N/N=C(\N)c3ccccn3)cc2)cc1` [Compound 13], the pEC50 is 6.00 to 6.52.

`CC(=NNC(=N)N)c1ccc(NC(=O)Nc2ccc(C(C)CNC(=N)N)cc2)cc1` (centres unmarked) [Compound 62] showed a pEC50 of less than 5.00.

Consider `COc1ccc2[nH]nc(C(=O)Nc3ccc(/C(C)=N/NC(=N)N)cc3)c2c1` [Compound 42], for which the pEC50 is less than 5.00.

With `COc1ccc2[nH]c(C(=O)Nc3ccc4c(c3)CC/C4=N\NC(=N)N)cc2c1` [Compound 110], the pEC50 was less than 5.00.

For `C/C(=N/NC(=N)N)c1ccc(NC(=O)c2cc3cc(OC(F)(F)F)ccc3[nH]2)cc1` [Compound 33], the negative logarithm of the EC50 (pEC50) was 5.00 to 6.00.

`C/C(=N\NC(=N)N)c1ccc(NC(=O)c2cc3ccc(N)cc3[nH]2)cc1` [Compound 83] had a negative logarithm of the EC50 (pEC50) of 5.00 to 6.00.

Turning to `C/C(=N\NC(=N)N)c1ccc(NC(=O)Nc2ccc(/C(=N/NC(=N)N)c3ccccc3)cc2)cc1` [Compound 54], the negative logarithm of the EC50 (pEC50) is 5.00 to 6.00.

`CC(=NNC(=N)N)c1ccc(NC(=O)c2cc3cc([N+](=O)[O-])ccc3[nH]2)cc1` [Compound 35]: the pEC50 is less than 5.00.

Regarding `COc1cc2cc(C(=O)Nc3ccc(/C(C)=N/NC(=N)N)cc3)[nH]c2cc1OCc1ccccc1` [Compound 29], the pEC50 was 5.00 to 6.00.

With `CC/C(=N\NC(=N)N)c1ccc(NC(=O)c2ccco2)cc1` [Compound 53], the negative logarithm of the EC50 (pEC50) was 5.00 to 6.00.

For `C/C(=N\NC(=N)N)c1ccc(NC(=O)c2cc3cc(C)ccc3[nH]2)cc1` [Compound 9], the pEC50 is 6.52 to 7.00.

Consider `C/C(=N\NC(=N)N)c1ccc(NC(=O)c2cc3cc(Br)ccc3o2)cc1` [Compound 32], for which the pEC50 is 5.00 to 6.00.

`C/C(=N\NC(=N)N)c1ccc2[nH]c(C(=O)Nc3cc(C)ccn3)cc2c1` [Compound 102] showed a negative-log EC50 (pEC50) of 5.00 to 6.00.

`C/C(=N\N/C(N)=N/O)c1ccc(NC(=O)c2cc3cc(C(N)=O)ccc3[nH]2)cc1` [Compound 129] showed a pEC50 of 6.00 to 6.52.

Consider `C/C(=N\NC(=N)N)c1ccc(NC(=O)c2cc3cccc(NS(N)(=O)=O)c3[nH]2)cc1` [Compound 95], for which the pEC50 is 5.00 to 6.00.

`CC(=O)c1ccc2[nH]c(C(=O)Nc3ccc(/C(C)=N/NC(=N)N)cc3)cc2c1` [Compound 71] showed a pEC50 of more than 7.00.

Take `C/C(=N/NC(=N)N)c1ccc2[nH]c(C(=O)Nc3ccc(-n4ccnc4)cc3)cc2c1` [Compound 127]: the pEC50 was 6.52 to 7.00.

For the compound `C/C(=N\NC(=N)N)c1ccc(NC(=O)Nc2ccc(Cl)cc2)cc1` [Compound 57], the negative-log EC50 (pEC50) is 5.00 to 6.00.

In turn, `COc1ccc2[nH]c(C(=O)Nc3ccc(/C(C)=N/NC4=NCCN4)cc3)cc2c1` [Compound 19] gave a pEC50 of 6.52 to 7.00.

The compound `N=C(N)N/N=C1\CCCc2cc(NC(=O)c3cc4cccc([N+](=O)[O-])c4[nH]3)ccc21` [Compound 86] had a negative logarithm of the EC50 (pEC50) of more than 7.00.

In turn, `C/C(=N\NC(=N)N)c1ccc2[nH]c(C(=O)Nc3ccc(C(N)=O)cc3)cc2c1` [Compound 115] gave a negative logarithm of the EC50 (pEC50) of 6.52 to 7.00.

`C/C(=N\NC(=N)N)c1ccc2[nH]c(C(=O)Nc3ccc4cc[nH]c4c3)cc2c1` [Compound 81] gave a pEC50 of 6.00 to 6.52.

With `C/C(=N/NC(=N)N)c1ccc(NC(=O)c2cc3cc(OCc4ccccc4)ccc3[nH]2)cc1` [Compound 34], the pEC50 was 5.00 to 6.00.

Compound `C/C(=N\NC(=N)N)c1ccc(NC(=O)c2cc3c(ccc4ccccc43)[nH]2)cc1` [Compound 107] gave a pEC50 of 5.00 to 6.00.
